Molecular target: Human DGAT2 (hDGAT2) (Homo sapiens (Human), UniProt Q96PD7)
Assay: In vitro DGAT2 assay, IC50 determination with hDGAT2 membrane fraction
Type: biochemical
Details: geometric mean; background for complete inhibition of DGAT2 obtained with 50 μM (1R,2R)-2-({3′-Fluoro-4′-[(6-fluoro-1,3-benzothiazol-2-yl)amino]-1,1′-biphenyl-4-yl}carbonyl)cyclopentanecarboxylic acid; read-out: DGAT2 IC50
In short: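 CHAPS-solubilized membrane fraction of FLAG-tagged hDGAT2 from baculovirus-infected SF9 cells (0.01 mg/mL) in 100 mM Hepes-NaOH pH 7.4, 20 mM MgCl2, 200 nM methyl arachidonyl fluorophosphonate; compounds pre-incubated 20 min with 0.04% BSA. Reaction 40 min at room temperature, stopped with H3PO4. [^14C]tridecanoylglycerol in organic phase counted; 11-point geometric mean IC50.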

Sequence of Human DGAT2 (hDGAT2) (Q96PD7 whole entry): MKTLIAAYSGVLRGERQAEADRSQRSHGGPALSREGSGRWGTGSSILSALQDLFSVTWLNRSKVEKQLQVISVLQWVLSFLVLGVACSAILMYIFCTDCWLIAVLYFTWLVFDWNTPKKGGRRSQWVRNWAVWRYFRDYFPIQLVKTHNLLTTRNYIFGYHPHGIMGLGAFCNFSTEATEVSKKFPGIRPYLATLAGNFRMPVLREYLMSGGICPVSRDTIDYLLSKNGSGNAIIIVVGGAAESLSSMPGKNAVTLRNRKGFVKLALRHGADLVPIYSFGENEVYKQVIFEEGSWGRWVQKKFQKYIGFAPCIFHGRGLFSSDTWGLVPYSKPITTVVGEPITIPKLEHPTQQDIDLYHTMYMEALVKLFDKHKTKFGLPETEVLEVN

| Compound | IC50 |
| --- | --- |
| Cc1nc(-c2nc3ccc(N4CCC[C@@H](C(=O)N5CCCC5)C4)nc3[nH]2)cs1 [Example 17, (R)-(1-(2-(2-Methylthiazol-4-yl)-3H-imidazo[4,5-b]pyridin-5-yl)piperidin-3-yl)(pyrrolidin-1-yl)methanone] | 118 nM |
| O=C([C@@H]1CCCN(c2ncc3nc(-c4ccnc(C5CC5)n4)[nH]c3n2)C1)N1CCCC1 [Example 159, (R)-(1-(8-(2-Cyclopropylpyrimidin-4-yl)-9H-purin-2-yl)piperidin-3-yl)(pyrrolidin-1-yl)methanone] | 28.2 nM |
| COc1cccc(-c2nc3ccc(N4CCC[C@@H](C(=O)N5CCCC5)C4)nc3[nH]2)n1 [Example 37, (R)-(1-(2-(6-Methoxypyridin-2-yl)-3H-imidazo[4,5-b]pyridin-5-yl)piperidin-3-yl)(pyrrolidin-1-yl)methanone] | 12.6 nM |
| O=C([C@@H]1CCCN(c2ccc3nc(-c4cccc5ccnn45)[nH]c3n2)C1)N1CCCC1 [Example 12, (R)-(1-(2-(Pyrazolo[1,5-a]pyridin-7-yl)-3H-imidazo[4,5-b]pyridin-5-yl)piperidin-3-yl)(pyrrolidin-1-yl)methanone] | 54.7 nM |
| O=C([C@@H]1CCCN(c2ccc3nc(-c4coc(-c5ccccc5)n4)[nH]c3n2)C1)N1CCCC1 [Example 39, (R)-(1-(2-(2-Phenyloxazol-4-yl)-3H-imidazo[4,5-b]pyridin-5-yl)piperidin-3-yl)(pyrrolidin-1-yl)methanone] | 6.85 nM |
| COC(=O)c1cccc(-c2nc3ccc(N4CCC[C@@H](C(=O)N5CCCC5)C4)nc3[nH]2)n1 [Example 123, (R)-Methyl 6-(5-(3-(pyrrolidine-1-carbonyl)piperidin-1-yl)-1H-imidazo[4,5-b]pyridin-2-yl)picolinate] | 276 nM |
| Cc1csc(-c2nc3ccc(N4CCC[C@@H](C(=O)N5CCCC5)C4)nc3[nH]2)n1 [Example 11, (R)-(1-(2-(4-Methylthiazol-2-yl)-3H-imidazo[4,5-b]pyridin-5-yl)piperidin-3-yl)(pyrrolidin-1-yl)methanone] | 35 nM |
| CC(C)Cc1csc(-c2nc3ccc(N4CCC[C@@H](C(=O)N5CCCC5)C4)nc3[nH]2)n1 [Example 2, (R)-(1-(2-(4-Isobutylthiazol-2-yl)-3H-imidazo[4,5-b]pyridin-5-yl)piperidin-3-yl)(pyrrolidin-1-yl)methanone] | 2.71 nM |
| Cc1cc(C2(c3nc4ccc(N5CCC[C@@H](C(=O)N6CCCC6)C5)nc4[nH]3)CC2)on1 [Example 86, (R)-(1-(2-(1-(3-Methylisoxazol-5-yl)cyclopropyl)-3H-imidazo[4,5-b]pyridin-5-yl)piperidin-3-yl)(pyrrolidin-1-yl)methanone] | 288 nM |
| CSc1cnn(C2(c3nc4ccc(N5CCC[C@@H](C(=O)N6CCCC6)C5)nc4[nH]3)CC2)c1 [Example 189, (R)-(1-(2-(1-(4-(Methylthio)-1H-pyrazol-1-yl)cyclopropyl)-3H-imidazo[4,5-b]pyridin-5-yl)piperidin-3-yl)(pyrrolidin-1-yl)methanone] | 34.1 nM |
| O=C([C@@H]1CCCN(c2ccc3nc(-c4cccc(Cl)c4)[nH]c3n2)C1)N1CCCC1 [Example 41, (R)-(1-(2-(3-Chlorophenyl)-3H-imidazo[4,5-b]pyridin-5-yl)piperidin-3-yl)(pyrrolidin-1-yl)methanone] | 4.56 nM |
| CN(C)C(=O)c1cccc(-c2nc3ccc(N4CCC[C@@H](C(=O)N5CCCC5)C4)nc3[nH]2)n1 [Example 173, (R)—N,N-Dimethyl-6-(5-(3-(pyrrolidine-1-carbonyl)piperidin-1-yl)-3H-imidazo[4,5-b]pyridin-2-yl)picolinamide] | 1250 nM |
| COc1cnn(C2(c3nc4ccc(N5CCC[C@@H](C(=O)N6CCCC6)C5)nc4[nH]3)CC2)c1 [Example 194, (R)-(1-(2-(1-(4-Methoxy-1H-pyrazol-1-yl)cyclopropyl)-3H-imidazo[4,5-b]pyridin-5-yl)piperidin-3-yl)(pyrrolidin-1-yl)methanone] | 101 nM |
| CC(C)(C)c1csc(-c2nc3ccc(N4CCC[C@@H](C(=O)N5CCCC5)C4)nc3[nH]2)n1 [Example 42, (R)-(1-(2-(4-tert-Butylthiazol-2-yl)-3H-imidazo[4,5-b]pyridin-5-yl)piperidin-3-yl)(pyrrolidin-1-yl)methanone] | 3.18 nM |
| Cc1cc(N2CCC[C@@H](C(=O)N3CCCC3)C2)nc2[nH]c(-c3ccnc(C4CC4)n3)nc12 [Example 162, (R)-(1-(2-(2-Cyclopropylpyrimidin-4-yl)-7-methyl-3H-imidazo[4,5-b]pyridin-5-yl)piperidin-3-yl)(pyrrolidin-1-yl)methanone] | 434 nM |
| O=C([C@@H]1CCCN(c2ccc3nc(-c4cccc(-c5cnco5)c4)[nH]c3n2)C1)N1CCCC1 [Example 6, (R)-(1-(2-(3-(Oxazol-5-yl)phenyl)-3H-imidazo[4,5-b]pyridin-5-yl)piperidin-3-yl)(pyrrolidin-1-yl)methanone] | 11.5 nM |
| COC(=O)c1cccc(-c2nc3ccc(N4CCC[C@@H](C(=O)N5CCCC5)C4)nc3[nH]2)c1 [Example 125, (R)-Methyl 3-(5-(3-(pyrrolidine-1-carbonyl)piperidin-1-yl)-3H-imidazo[4,5-b]pyridin-2-yl)benzoate] | 54 nM |
| O=C1COc2ccc(-c3nc4ccc(N5CCC[C@@H](C(=O)N6CCCC6)C5)nc4[nH]3)cc2N1 [Example 27, (R)-6-(5-(3-(Pyrrolidine-1-carbonyl)piperidin-1-yl)-3H-imidazo[4,5-b]pyridin-2-yl)-2H-benzo[b][1,4]oxazin-3(4H)-one] | 1390 nM |
| N#CC1(c2cccc(-c3nc4ccc(N5CCC[C@@H](C(=O)N6CCCC6)C5)nc4[nH]3)n2)CC1 [Example 156, (R)-1-(6-(5-(3-(Pyrrolidine-1-carbonyl)piperidin-1-yl)-1H-imidazo[4,5-b]pyridin-2-yl)pyridin-2-yl)cyclopropanecarbonitrile] | 275 nM |
| O=C([C@@H]1CCCN(c2ccc3nc(-c4cncc(C5CC5)c4)[nH]c3n2)C1)N1CCCC1 [Example 183, (R)-(1-(2-(5-Cyclopropylpyridin-3-yl)-3H-imidazo[4,5-b]pyridin-5-yl)piperidin-3-yl)(pyrrolidin-1-yl)methanone] | 37.5 nM |
| O=C([C@H]1CN(c2ncc3nc(C4(n5cc(Cl)cn5)CC4)[nH]c3n2)CCO1)N1CCCC1 [Example 213, (R)-(4-(8-(1-(4-Chloro-1H-pyrazol-1-yl)cyclopropyl)-9H-purin-2-yl)morpholin-2-yl)(pyrrolidin-1-yl)methanone] | 161 nM |
| CC(C)(c1nc2ccc(N3CCC[C@@H](C(=O)N4CCCC4)C3)nc2[nH]1)n1cc(Cl)cn1 [Example 188] | 31.4 nM |
| O=C([C@@H]1CCCN(c2ccc3nc(-c4ccnc(C5CC5)n4)[nH]c3n2)C1)N1CCOCC1 [Example 70, (R)-(1-(2-(2-Cyclopropylpyrimidin-4-yl)-3H-imidazo[4,5-b]pyridin-5-yl)piperidin-3-yl)(morpholino)methanone] | 162 nM |
| O=C([C@@H]1CCCN(c2ccc3nc(-c4cccc(C5CC5)n4)[nH]c3n2)C1)N1CCC(F)(F)C1 [Example 184, (R)-(1-(2-(6-Cyclopropylpyridin-2-yl)-3H-imidazo[4,5-b]pyridin-5-yl)piperidin-3-yl)(3,3-difluoropyrrolidin-1-yl)methanone] | 15.2 nM |
| c1cc(-c2nc3ccc(N4CCC[C@H](c5nnc6n5CCC6)C4)nc3[nH]2)nc(C2CC2)n1 [Example 168, (S)-2-(2-cyclopropylpyrimidin-4-yl)-5-(3-(6,7-dihydro-5H-pyrrolo[2,1-c][1,2,4]triazol-3-yl)piperidin-1-yl)-3H-imidazo[4,5-b]pyridine] | 1390 nM |
| O=C([C@@H]1CCCN(c2ccc3nc([C@H]4C[C@H]4c4ccccc4)[nH]c3n2)C1)N1CCCC1 [Example 18, ((R)-1-(2-((1S,2R)-2-Phenylcyclopropyl)-3H-imidazo[4,5-b]pyridin-5-yl)piperidin-3-yl)(pyrrolidin-1-yl)methanone] | 196 nM |
| O=C([C@@H]1CCCN(c2ccc3nc(C4CCC4)[nH]c3n2)C1)N1CCCC1 [Example 53, (R)-(1-(2-Cyclobutyl-3H-imidazo[4,5-b]pyridin-5-yl)piperidin-3-yl)(pyrrolidin-1-yl)methanone] | 2530 nM |
| O=C([C@@H]1CCCN(c2ccc3nc(-c4cccc(C5CC5)n4)[nH]c3n2)C1)N1CC=CC1 [Example 158, (R)-(1-(2-(6-Cyclopropylpyridin-2-yl)-3H-imidazo[4,5-b]pyridin-5-yl)piperidin-3-yl)(2,5-dihydro-1H-pyrrol-1-yl)methanone] | 3.58 nM |

Same assay, conditions: read-out: DGAT2 IC50

| Compound | IC50 |
| --- | --- |
| O=C([C@@H]1CCCN(c2ccc3nc(-c4cccc(OC(F)F)c4)[nH]c3n2)C1)N1CCOCC1 [Example 155, (R)-(1-(2-(3-(Difluoromethoxy)phenyl)-3H-imidazo[4,5-b]pyridin-5-yl)piperidin-3-yl)(morpholino)methanone] | 35.6 nM |
| C[C@H]1CCN(c2ncc3nc(C4(n5cccn5)CC4)[nH]c3n2)C[C@H]1C(=O)N1CCCC1 [Example 208, ((3S,4S)-1-(8-(1-(1H-pyrazol-1-yl)cyclopropyl)-9H-purin-2-yl)-4-methylpiperidin-3-yl)(pyrrolidin-1-yl)methanone] | 37400 nM |
| C[C@H]1CCN(c2ccc3nc(-c4cccc(OC(F)F)c4)[nH]c3n2)C[C@H]1C(=O)N(C)C [Example 181, (3S,4S)-1-(2-(3-(difluoromethoxy)phenyl)-3H-imidazo[4,5-b]pyridin-5-yl)-N,N,4-trimethylpiperidine-3-carboxamide] | 17400 nM |
| [(R)-1-{2-[1-(4-Chloro-1H-pyrazol-1-yl)cyclopropyl]-3H-imidazo[4,5-b]pyridin-5-yl}(2,2,6,6-^2H4)piperidin-3-yl](pyrrolidin-1-yl)methanone [Example 190] | 35.9 nM |
